Consider three compounds from US20220372020A1, “CRYSTALLINE FORMS OF PHTHALAZINONE COMPOUND” (Idience Co., Ltd., priority 2020, published 2022).

A short description of series [1]: Long-term stability purity test (total impurities by HPLC). The class given is physicochemical. The following applies: relative humidity 60±5%; for Total impurities content: HPLC. The method, then:
Crystalline Form A of the compound of Formula 1 prepared in Example 1 was stored under long-term storage conditions (25±2° C., and Relative humidity: 60±5%). Samples were taken after 3 months, 6 months, 9 months, 12 months, 18 months, and even 24 months from the onset of the storage to measure total impurities content by high performance liquid chromatography (HPLC).

The nature of series [2]: Storage behaviour of the amorphous form. Type of series: physicochemical. From the text: The obtained amorphous form readily absorbed water during the storage, i.e., it was hygroscopic, whereby the color turned yellow. It was thus confirmed that the amorphous form was not suitable for use as a medicinal drug substance.
Series [3] concerns poly(ADP-ribose) polymerase (PARP). The following applies: as disclosed in US'973; cited from earlier work.

In the case of `Cl.O=C(c1cc(Cc2n[nH]c(=O)c3ccccc23)ccc1F)N1CC(CNC2CC2)C1` [Crystalline Form A, 4-[3-(3-[(cyclopropylamino)methyl]azetidine-1-carbonyl)-4-fluorobenzyl]phthalazin-1(2H)-one hydrochloride], the Total impurities content is on record as 0.15% wt % in series [1] (3 months, 25±2° C.); 0.16% wt % in series [1] (6 months, 25±2° C.); 0.15% wt % in series [1] (9 months, 25±2° C.); 0.14% wt % in series [1] (12 months, 25±2° C.); 0.19% wt % in series [1] (18 months, 25±2° C.); 0.14% wt % in series [1] (Initial, long-term storage 25±2° C.). Besides, in series [1] (25±2° C., up to 24 months), the “Stability under long-term storage conditions (in words)” value is on record as “high stability”.
For `Cl.O=C(c1cc(Cc2n[nH]c(=O)c3ccccc23)ccc1F)N1CC(CNC2CC2)C1` [amorphous form, 4-[3-(3-[(cyclopropylamino)methyl]azetidine-1-carbonyl)-4-fluorobenzyl]phthalazin-1(2H)-one hydrochloride], in series [2], the “Colour change during storage” value is “turned yellow” and the “Water absorption during storage (hygroscopicity)” value is “hygroscopic”.
Consider `Cl.O=C(c1cc(Cc2n[nH]c(=O)c3ccccc23)ccc1F)N1CC(CNC2CC2)C1` [compound of Formula 1, 4-[3-(3-[(cyclopropylamino)methyl]azetidine-1-carbonyl)-4-fluorobenzyl]phthalazin-1(2H)-one hydrochloride], for which, in series [3], the PARP inhibitory activity entry is “PARP inhibitory activity”.
